Experimental data as given in patent US20140010824A1 (priority 2012, published 2014).
Converted amounts (≈) assume the structure as drawn.

What was measured:
Experiment in all cases: microbe, parasite or virus in culture
[1] = tested on: Yptb(P^−) ΔmrtAB pmrtA^+B^+ flag; format: cell-based; conditions: Yersinia pseudotuberculosis, read-out: minimum inhibitory concentration (MIC)
[2] = tested on: Yptb(P^−) pmrtA^+B^+; format: cell-based, Yersinia pseudotuberculosis; conditions: for MIC: Yersinia pseudotuberculosis, read-out: minimum inhibitory concentration (MIC)
[3] = tested on: Yptb(P^−) ΔmrtAB pmrtA^+B^+; format: cell-based; conditions: Yersinia pseudotuberculosis, read-out: minimum inhibitory concentration (MIC)
[4] = tested on: Yptb(P^−) pGC1 (empty); format: cell-based; conditions: Yersinia pseudotuberculosis, read-out: minimum inhibitory concentration (MIC)
[5] = tested on: Yptb(P^−) ΔmrtAB pGC1 (empty); format: cell-based; conditions: for MIC: Yersinia pseudotuberculosis, read-out: minimum inhibitory concentration (MIC)

Structure (SMILES)	MIC [1]	MIC [2]	MIC [3]	MIC [4]	MIC [5]	change of susceptibility on expression of mrtAB on multi-copy plasmid (pACYC 184 derivative) [2]	difference in MIC resulting from the absence of MrtAB [5]
CC[n+]1c(-c2ccccc2)c2cc(N)ccc2c2ccc(N)cc21 [ethidium bromide]	100 µg/mL	100 µg/mL	100 µg/mL	25 µg/mL	25 µg/mL	–	–
Cn1c2cccc(=O)c-2nc2ccccc21 [pyocyanin]	0.25 µg/mL (≈ 1.19 µM)	0.25 µg/mL (≈ 1.19 µM)	0.25 µg/mL (≈ 1.19 µM)	1 µg/mL (≈ 4.76 µM)	1 µg/mL (≈ 4.76 µM)	increased susceptibility	No difference was detected
CN(C)c1ccc2cc3ccc(N(C)C)cc3nc2c1 [aeridine orange, N,N,N′,N′-tetramethylacridine-3,6-diamine]	–	50 µg/mL (≈ 188 µM)	50 µg/mL (≈ 188 µM)	50 µg/mL (≈ 188 µM)	50 µg/mL (≈ 188 µM)	–	–
